Data: patent US10798941B2, “Microbiocidal oxadiazole derivatives” (SYNGENTA PARTICIPATIONS AG, priority 2016, dated 2020)

How the values were obtained:
[1] = tested on: Puccinia recondita f. Sp. Tritici; assay: Puccinia recondita f. sp. tritici / wheat / leaf disc preventative (brown rust); type: in vivo; details: foliar, 168 h, 200 ppm in the applied formulation, wheat leaf segments cv. Kanzler, preventative, inoculated 1 day after application, assessed 7 to 9 days after application, vs untreated, read-out: disease control
How it was run: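 Wheat cv. Kanzler leaf segments on agar were sprayed with formulated compound in water, then inoculated with spores 1 day later. Incubated at 19° C, 75% rh, 12 h light/12 h dark; percent disease control versus untreated scored 7 to 9 days after application.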

[2] = tested on: Puccinia recondita f. Sp. Tritici; assay: Puccinia recondita f. sp. tritici / wheat / leaf disc curative (brown rust); type: in vivo; details: foliar, 144 h, 200 ppm in the applied formulation, wheat leaf segments cv. Kanzler, applied 1 day after inoculation, assessed 6 to 8 days after application, vs untreated, read-out: disease control
How it was run: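 Read-out is percent disease control relative to untreated segments, assessed 6 to 8 days after treatment once check disease is adequate. Kanzler wheat leaf segments on agar receive fungal spores, then test compound (DMSO stock diluted in 0.025% Tween20 or water) 1 day later, under 19° C and 75% relative humidity.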

Phakopsora pachyrhizi = Phakopsora pachyrhizi / soybean / leaf disc preventative (Asian soybean rust); type: in vivo; details: foliar, 288 h, 200 ppm in the applied formulation, soybean leaf disks, inoculated one day after application, assessed 12 to 14 days after application, vs untreated, read-out: disease control
How it was run: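 Read-out is percent disease control relative to untreated check discs, assessed once untreated discs show adequate disease, 12 to 14 days after application. Compounds, tested at 200 ppm in the applied formulation, are sprayed onto soybean leaf discs one day before inoculation with a spore suspension.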

[3] = tested on: Glomerella Lagenarium (Colletotrichum Lagenarium); assay: Glomerella lagenarium (Colletotrichum lagenarium) liquid culture / cucumber / preventative (anthracnose); type: cell-based; details: Colletotrichum orbiculare; 20 ppm in the applied formulation; liquid culture in PDB, 24° C., inhibition of growth measured photometrically 3 to 4 days after application, vs untreated; read-out: disease control
How it was run: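 Conidia from cryogenic storage were mixed into potato dextrose broth. This was added to compound diluted from DMSO into 0.025% Tween20, tested at 20 ppm. Plates were incubated in the dark at 24 °C and 96% relative humidity, and growth was read photometrically after 2–7 days as % activity versus untreated check.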

Uromyces viciae-Fabae = assay: Uromyces viciae-fabae / field bean / leaf disc preventative (faba-bean rust); type: in vivo; details: foliar, 288 h, 100 ppm in the applied formulation, field bean leaf discs, inoculated two hours after application, assessed 12 days after application, vs untreated, read-out: disease control
Method: Leaf disks or leaf segments of various plant species are cut from plants grown in a greenhouse. The cut leaf disks or segments are placed in multiwell plates (24-well format) onto water agar. The leaf disks are sprayed with a test solution before (preventative) or after (curative) inoculation. Compounds to be tested are prepared as DMSO solutions (max. 10 mg/ml) which are diluted to the appropriate concentration with 0.025% Tween20 just before spraying. The inoculated leaf disks or segments are incubated under defined conditions (temperature, relative humidity, light, etc.) according to the respective test system. A single evaluation of disease level is carried out 3 to 14 days after inoculation, depending on the pathosystem. Percent disease control relative to the untreated check leaf disks or segments is then calculated.
Field bean leaf discs are placed on water agar in multiwell plates (96-well format) and 10 μl of the formulated test compound diluted in acetone and a spreader pipetted onto the leaf disc. Two hours after application leaf discs are inoculated by spraying a spore suspension on the lower leaf surface. The leaf discs are incubated in a climate cabinet at 22° C. with 18 hour day and 70% relative humidity. The activity of a compound is assessed as percent disease control compared to untreated when an appropriate level of disease damage appears in untreated check leaf disks (12 days after application).
The following compounds at 100 ppm in the applied formulation give at least 80% disease control in this test when compared to untreated control leaf discs under the same conditions, which show extensive disease development.

Row | Compound | melting point | pest or weed control at 200 ppm [1] | pest or weed control at 200 ppm [2] | pest or weed control at 200 ppm (Phakopsora pachyrhizi) | inhibition of growth at 20 ppm [3] | pest or weed control at 100 ppm (Uromyces viciae-Fabae)
1 | FC(F)(F)c1nc(-c2ccc(Cn3nncc3-c3ccccc3)cc2)no1 [Compound 1.3, 3-[4-[(5-phenyltriazol-1-yl)methyl]phenyl]-5-(trifluoromethyl)-1,2,4-oxadiazole] |  | ≥ 80% | ≥ 80% | ≥ 80% | ≥ 80% | ≥ 80%
2 | FC(F)(F)c1nc(-c2ccc(Cn3cc(-c4ccccc4)nn3)cc2)no1 [Compound 1.4, 3-[4-[(4-phenyltriazol-1-yl)methyl]phenyl]-5-(trifluoromethyl)-1,2,4-oxadiazole] | 161.5 to 164.4 °C | ≥ 80% |  | ≥ 80% | ≥ 80% | ≥ 80%
3 | Cn1cncc1-c1cn(Cc2ccc(-c3noc(C(F)(F)F)n3)cc2)nn1 [Compound 1.6, 3-[4-[[4-(3-methylimidazol-4-yl)triazol-1-yl]methyl]phenyl]-5-(trifluoromethyl)-1,2,4-oxadiazole] | 108.7 to 110.3 °C | ≥ 80% | ≥ 80% | ≥ 80% | ≥ 80% | ≥ 80%
4 | CC1(C)CN=C(Cc2ccc(-c3noc(C(F)(F)F)n3)cc2)O1 [Compound 1.10, 3-[4-[(5,5-dimethyl-4H-oxazol-2-yl)methyl]phenyl]-5-(trifluoromethyl)-1,2,4-oxadiazole] |  | ≥ 80% | ≥ 80% | ≥ 80% | ≥ 80% | ≥ 80%
5 | COc1ccc(-c2cn(Cc3ccc(-c4noc(C(F)(F)F)n4)cc3)nn2)cc1 [Compound 1.12, 3-[4-[[4-(4-methoxyphenyl)triazol-1-yl]methyl]phenyl]-5-(trifluoromethyl)-1,2,4-oxadiazole] | 187.7 to 196.2 °C | ≥ 80% |  |  |  | ≥ 80%
6 | Fc1ccc(-c2cn(Cc3ccc(-c4noc(C(F)(F)F)n4)cc3)nn2)cc1 [Compound 1.13, 3-[4-[[4-(4-fluorophenyl)triazol-1-yl]methyl]phenyl]-5-(trifluoromethyl)-1,2,4-oxadiazole] | 185.3 to 189 °C |  |  |  |  | ≥ 80%
7 | Cc1ccc(-c2cn(Cc3ccc(-c4noc(C(F)(F)F)n4)cc3)nn2)cc1 [Compound 1.14, 3-[4-[[4-(p-tolyl)triazol-1-yl]methyl]phenyl]-5-(trifluoromethyl)-1,2,4-oxadiazole] | 200.6 to 204.2 °C |  |  |  |  | ≥ 80%
8 | Cc1cc(C)n(Cc2ccc(-c3noc(C(F)(F)F)n3)cc2)n1 [Compound 1.15, 3-[4-[(3,5-dimethylpyrazol-1-yl)methyl]phenyl]-5-(trifluoromethyl)-1,2,4-oxadiazole] | 53 to 58 °C | ≥ 80% | ≥ 80% | ≥ 80% | ≥ 80% | ≥ 80%
9 | FC(F)(F)c1nc(-c2ccc(Cn3cccn3)cc2)no1 [Compound 1.16, 3-[4-(pyrazol-1-ylmethyl)phenyl]-5-(trifluoromethyl)-1,2,4-oxadiazole] | 36 to 41 °C | ≥ 80% | ≥ 80% | ≥ 80% | ≥ 80% | ≥ 80%
10 | FC(F)c1cc(C(F)F)n(Cc2ccc(-c3noc(C(F)(F)F)n3)cc2)n1 [Compound 1.17, 3-[4-[[3,5-bis(difluoromethyl)pyrazol-1-yl]methyl]phenyl]-5-(trifluoromethyl)-1,2,4-oxadiazole] | 53 to 58 °C |  |  | ≥ 80% | ≥ 80% | ≥ 80%
11 | Cc1cc(C(F)(F)F)nn1Cc1ccc(-c2noc(C(F)(F)F)n2)cc1 [Compound 1.20, 3-[4-[[5-methyl-3-(trifluoromethyl)pyrazol-1-yl]methyl]phenyl]-5-(trifluoromethyl)-1,2,4-oxadiazole] |  |  |  | ≥ 80% | ≥ 80% | ≥ 80%
12 | CS(=O)(=O)N1CCN(Cc2ccc(-c3noc(C(F)(F)F)n3)cc2)CC1 [Compound 1.305, 3-[4-[(4-methylsulfonyl-piperazin-1-yl)methyl]phenyl]-5-(trifluoromethyl)-1,2,4-oxadiazole] | 111.1 to 114.9 °C | ≥ 80% | ≥ 80% | ≥ 80% | ≥ 80% | 

Further lines, with some results ahead:

Row | melting point | Compound | pest or weed control at 200 ppm [1] | pest or weed control at 200 ppm [2] | pest or weed control at 200 ppm (Phakopsora pachyrhizi) | inhibition of growth at 20 ppm [3] | pest or weed control at 100 ppm (Uromyces viciae-Fabae)
13 | 116.2 to 118.2 °C | CCn1cc(-c2cn(Cc3ccc(-c4noc(C(F)(F)F)n4)cc3)nn2)c(C)n1 [Compound 1.1, 3-[4-[[4-(1-ethyl-3-methyl-pyrazol-4-yl)triazol-1-yl]methyl]phenyl]-5-(trifluoromethyl)-1,2,4-oxadiazole] | ≥ 80% | ≥ 80% | ≥ 80% | ≥ 80% | ≥ 80%
14 | 138.3 to 140.1 °C | CCn1ncc(-c2cn(Cc3ccc(-c4noc(C(F)(F)F)n4)cc3)nn2)c1C [Compound 1.2, 3-[4-[[4-(1-ethyl-5-methyl-pyrazol-4-yl)triazol-1-yl]methyl]phenyl]-5-(trifluoromethyl)-1,2,4-oxadiazole] | ≥ 80% | ≥ 80% | ≥ 80% | ≥ 80% | ≥ 80%
15 | 115.5 to 117.2 °C | FC(F)(F)c1nc(-c2ccc(Cn3cc(C4CC4)nn3)cc2)no1 [Compound 1.5, 3-[4-[(4-cyclopropyltriazol-1-yl)methyl]phenyl]-5-(trifluoromethyl)-1,2,4-oxadiazole] | ≥ 80% | ≥ 80% | ≥ 80% | ≥ 80% | ≥ 80%
16 | 157.4 to 160.4 °C | CC(=O)OCc1cn(Cc2ccc(-c3noc(C(F)(F)F)n3)cc2)nn1 [Compound 1.7, [1-[[4-[5-(trifluoromethyl)-1,2,4-oxadiazol-3-yl]phenyl]methyl]triazol-4-yl]methyl acetate] | ≥ 80% |  | ≥ 80% | ≥ 80% | ≥ 80%
17 | 160.2 to 163.9 °C | FC(F)(F)c1nc(-c2ccc(Cn3cc(-c4ccsc4)nn3)cc2)no1 [Compound 1.8, 3-[4-[[4-(3-thienyl)triazol-1-yl]methyl]phenyl]-5-(trifluoromethyl)-1,2,4-oxadiazole] | ≥ 80% | ≥ 80% |  | ≥ 80% | ≥ 80%
18 | 134.7 to 136.9 °C | CC(C)(C)OC(=O)NCc1cn(Cc2ccc(-c3noc(C(F)(F)F)n3)cc2)nn1 [Compound 1.9, tert-butyl N-[[1-[[4-[5-(trifluoromethyl)-1,2,4-oxadiazol-3-yl]phenyl]methyl]triazol-4-yl]methyl]carbamate] | ≥ 80% | ≥ 80% | ≥ 80% | ≥ 80% | ≥ 80%
19 | 115.7 to 117.6 °C | CCOCc1cn(Cc2ccc(-c3noc(C(F)(F)F)n3)cc2)nn1 [Compound 1.11, 3-[4-[[4-(ethoxymethyl)triazol-1-yl]methyl]phenyl]-5-(trifluoromethyl)-1,2,4-oxadiazole] | ≥ 80% | ≥ 80% | ≥ 80% |  | ≥ 80%
